Results published in ChEMBL document CHEMBL1201862, “PubChem BioAssay data set” (2004).
Activity calls are given as the source filed them.

What was measured:
[1] = Luminescence Cell-Based Dose Response HTS to Identify Inhibitors of 5'UTR Stem-Loop Driven Prion Protein mRNA Translation in H4 Neuroglioblastoma Cells. [Related pubchem assays: 1827 (Project Summary), 1813 (Primary HTS)]; assay type: functional
[2] = inhibitors of SNCA 5'UTR-driven reporter translation, confirmation, H4 neuroglioma cells, luminescence (AID 1988); assay type: functional, cell-based
[3] = molecular target: T1, Protein Tat (Human immunodeficiency virus type 1 group M subtype B (isolate HXB2)(HIV-1), UniProt P04608); assay type: functional;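 also: tat binding to TAR RNA read out by fluorescence polarization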
T1 sequence (P04608 whole entry): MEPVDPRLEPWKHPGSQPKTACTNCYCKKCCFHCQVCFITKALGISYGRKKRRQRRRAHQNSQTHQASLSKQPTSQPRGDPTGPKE

[4] = inhibitors of firefly luciferase expression or activity, dose response, H4 neuroglioma cells, luminescence (AID 1990); assay type: functional, cell-based
[5] = test system: BJ; experiment: cytotoxicity toward BJ-TERT-LT-ST fibroblasts, dose response, cell-based, RAS-independent, luminescence (AID 1935); assay type: functional; settings: Homo sapiens;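 also: BJ fibroblasts immortalized with TERT plus LT and ST oncogenes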
[6] = molecular target: Peroxisome proliferator-activated receptor gamma/Nuclear receptor coactivator 3 (Homo sapiens, UniProt P37231); assay type: functional;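 also: agonist potency for raising coactivator recruitment to the receptor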
[7] = cytotoxicity toward DRD oncogenic fibroblasts, dose response, cell-based, non-viral oncogenic, luminescence (AID 1934); assay type: functional; settings: Homo sapiens
[8] = test system: BJ; experiment: cytotoxicity toward BJ-TERT fibroblasts, dose response, cell-based, RAS-independent, luminescence (AID 1933); assay type: functional; settings: Homo sapiens
[9] = molecular target: Peroxisome proliferator-activated receptor gamma/Nuclear receptor coactivator 2 (Homo sapiens, UniProt P37231); assay type: functional;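 also: agonist potency for raising coactivator recruitment to the receptor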
[10] = HepG2 cell cytotoxicity, dose response, cytotoxicity control for Shn3 inhibitor project, CellTiter-Glo, cherry-picked (AID 624134); assay type: functional, cell-based
[11] = Shn3 3'UTR reporter inhibitors, dose response, cell-based, Clone20 osteoblasts, firefly luciferase, cherry-picked (AID 624132); assay type: functional;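 also: firefly luciferase luminescence from reporter carrying the Shn3 3'UTR in osteoblasts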
[12] = control 3'UTR Renilla luciferase suppression, dose response, counter-screen for Shn3 inhibitor project, cell-based, Clone20-Shn3RL, cherry-picked (AID 624133); assay type: functional
[13] = molecular target: Peroxisome proliferator-activated receptor gamma/Nuclear receptor coactivator 1 (Homo sapiens, UniProt P37231); assay type: functional;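 also: agonist potency as compounds enhance coactivator SRC-1 recruitment to PPARgamma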
[14] = test system: BJ; experiment: cells; assay type: functional, cell-based; settings: Homo sapiens
[15] = molecular target: NAD-dependent protein deacylase sirtuin-5, mitochondrial (Homo sapiens, UniProt Q9NXA8); experiment: SIRT5 desuccinylase inhibitors, dose response, biochemical, fluorescence imaging, cherry-pick, set 5 (AID 720591);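 also: desuccinylation of succinyl peptide AMC substrate read as fluorescence after trypsin release; potency of inhibitors that lower fluorescence and may act on trypsin instead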
[16] = molecular target: Disintegrin and metalloproteinase domain-containing protein 17 (Homo sapiens, UniProt P78536); experiment: exosite inhibitors of ADAM17, dose response, biochemical (AID 743260)
[17] = molecular target: T2, Protein RecA (Mycobacterium tuberculosis, UniProt P9WHJ3); experiment: Fluorescence Cell-Free Homogeneous Dose Retest to Identify Inhibitors of RecA-Intein Splicing Activity. [Related pubchem assays (depositor defined):AID2097, AID2223, AID489010, AID492950]; assay type: functional
T2 sequence (P9WHJ3 whole entry): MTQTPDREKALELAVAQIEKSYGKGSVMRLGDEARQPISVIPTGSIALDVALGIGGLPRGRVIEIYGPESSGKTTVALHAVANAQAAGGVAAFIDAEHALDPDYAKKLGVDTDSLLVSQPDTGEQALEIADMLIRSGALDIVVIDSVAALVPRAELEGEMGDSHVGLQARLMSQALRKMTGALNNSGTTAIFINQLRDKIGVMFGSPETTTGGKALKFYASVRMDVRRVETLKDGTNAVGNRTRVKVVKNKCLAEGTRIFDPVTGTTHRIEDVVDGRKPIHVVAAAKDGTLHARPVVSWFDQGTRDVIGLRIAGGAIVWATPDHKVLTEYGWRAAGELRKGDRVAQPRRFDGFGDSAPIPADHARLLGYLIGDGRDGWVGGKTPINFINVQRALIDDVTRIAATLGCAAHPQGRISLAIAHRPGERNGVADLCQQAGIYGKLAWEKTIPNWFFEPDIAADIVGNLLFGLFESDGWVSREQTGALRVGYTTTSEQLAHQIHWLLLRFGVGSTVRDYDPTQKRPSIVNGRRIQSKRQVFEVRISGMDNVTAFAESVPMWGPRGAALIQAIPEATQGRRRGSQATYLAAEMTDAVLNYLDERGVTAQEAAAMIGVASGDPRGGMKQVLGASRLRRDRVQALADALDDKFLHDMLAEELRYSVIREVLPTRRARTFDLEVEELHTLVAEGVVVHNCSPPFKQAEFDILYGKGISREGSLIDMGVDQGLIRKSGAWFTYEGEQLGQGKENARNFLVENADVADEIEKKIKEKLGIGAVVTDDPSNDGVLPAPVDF

[18] = molecular target: T3, Replicative DNA helicase DnaB (Mycobacterium tuberculosis, UniProt P9WMR3); experiment: DnaB intein splicing inhibitors, dose response, biochemical, cell-free fluorescence (AID 449749); assay type: functional
T3 sequence (P9WMR3 whole entry): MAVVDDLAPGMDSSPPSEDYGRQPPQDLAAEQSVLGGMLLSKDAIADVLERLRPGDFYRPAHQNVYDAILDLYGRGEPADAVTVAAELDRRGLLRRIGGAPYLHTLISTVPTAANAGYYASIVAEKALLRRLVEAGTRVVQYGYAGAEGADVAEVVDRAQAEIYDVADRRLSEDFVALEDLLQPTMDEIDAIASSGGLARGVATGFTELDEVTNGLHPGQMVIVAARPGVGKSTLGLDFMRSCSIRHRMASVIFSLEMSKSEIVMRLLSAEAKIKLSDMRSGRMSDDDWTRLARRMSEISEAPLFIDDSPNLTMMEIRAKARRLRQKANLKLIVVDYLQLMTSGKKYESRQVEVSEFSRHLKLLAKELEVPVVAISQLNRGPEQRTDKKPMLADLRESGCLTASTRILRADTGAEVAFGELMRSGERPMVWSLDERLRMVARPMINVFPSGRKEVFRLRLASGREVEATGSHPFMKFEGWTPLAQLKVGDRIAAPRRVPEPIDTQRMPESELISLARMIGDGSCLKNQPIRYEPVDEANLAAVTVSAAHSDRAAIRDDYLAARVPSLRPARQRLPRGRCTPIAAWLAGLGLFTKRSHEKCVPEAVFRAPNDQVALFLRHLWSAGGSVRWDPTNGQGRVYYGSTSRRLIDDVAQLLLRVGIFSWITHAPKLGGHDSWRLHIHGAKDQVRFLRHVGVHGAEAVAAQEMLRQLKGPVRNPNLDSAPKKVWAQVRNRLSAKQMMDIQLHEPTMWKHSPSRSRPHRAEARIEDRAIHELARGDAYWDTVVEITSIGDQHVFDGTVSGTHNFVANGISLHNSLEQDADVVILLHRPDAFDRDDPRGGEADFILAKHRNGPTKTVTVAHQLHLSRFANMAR

[19] = molecular target: Eukaryotic translation initiation factor 4E (Mus musculus, UniProt P63073); experiment: eIF4E–eIF4G protein interaction inhibitors, dose response, biochemical, TR-FRET (AID 855); assay type: functional;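 also: potency for disrupting eIF4E binding to eIF4GI seen as loss of FRET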
[20] = IGROV1 ovarian cancer cell cytotoxicity, dose response, PAX8 inhibitor project, plate reader, dry powder samples (AID 743043); assay type: functional, cell-based; settings: IGROV-1
[21] = molecular target: Paired box protein Pax-8 (Homo sapiens, UniProt Q06710); experiment: inhibitors of PAX8-driven TPO luciferase reporter, dose response, RMG-I cells, cherry-pick (AID 687027); assay type: functional, cell-based;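 also: luciferase reporter driven by Pax8 target thyroperoxidase promoter measured by SteadyGlo luminescence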
[22] = cytotoxicity in OVCAR4 cells, dose response, cytotoxicity control for PAX8 inhibitor project, cell-based, plate reader, dry powder, SA11 (AID 743150); assay type: functional; settings: OVCAR-4
[23] = NIH:OVCAR-3 ovarian cancer cell cytotoxicity, dose response, PAX8 inhibitor project, plate reader, dry powder samples (AID 743044); assay type: functional, cell-based
[24] = cytotoxicity in OV-90 ovarian cancer cells, dose response, PAX8 inhibitor project, cell-based, plate reader, dry powder, SA8 (AID 743149); assay type: functional
[25] = cytotoxicity dependent on PAX8, dose response, cell-based, plate reader, dry powder (AID 743049); assay type: functional

Chain of Peroxisome proliferator-activated receptor gamma/Nuclear receptor coactivator 3 (P37231 whole entry): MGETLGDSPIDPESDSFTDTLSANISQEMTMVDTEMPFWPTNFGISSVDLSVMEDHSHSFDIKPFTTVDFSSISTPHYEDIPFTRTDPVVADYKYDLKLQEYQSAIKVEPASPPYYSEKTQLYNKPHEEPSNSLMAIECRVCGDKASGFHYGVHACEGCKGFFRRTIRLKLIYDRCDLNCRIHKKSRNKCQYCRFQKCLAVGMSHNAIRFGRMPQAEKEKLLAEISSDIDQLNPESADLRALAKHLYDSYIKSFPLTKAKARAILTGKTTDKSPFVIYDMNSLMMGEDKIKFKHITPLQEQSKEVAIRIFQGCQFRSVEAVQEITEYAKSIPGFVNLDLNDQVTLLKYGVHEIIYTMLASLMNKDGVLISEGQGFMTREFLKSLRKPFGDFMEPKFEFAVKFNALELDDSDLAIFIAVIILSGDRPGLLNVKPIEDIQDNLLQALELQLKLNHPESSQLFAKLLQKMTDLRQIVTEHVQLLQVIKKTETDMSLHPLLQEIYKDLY
Chain of Peroxisome proliferator-activated receptor gamma/Nuclear receptor coactivator 3 (Q9Y6Q9 whole entry, further chain): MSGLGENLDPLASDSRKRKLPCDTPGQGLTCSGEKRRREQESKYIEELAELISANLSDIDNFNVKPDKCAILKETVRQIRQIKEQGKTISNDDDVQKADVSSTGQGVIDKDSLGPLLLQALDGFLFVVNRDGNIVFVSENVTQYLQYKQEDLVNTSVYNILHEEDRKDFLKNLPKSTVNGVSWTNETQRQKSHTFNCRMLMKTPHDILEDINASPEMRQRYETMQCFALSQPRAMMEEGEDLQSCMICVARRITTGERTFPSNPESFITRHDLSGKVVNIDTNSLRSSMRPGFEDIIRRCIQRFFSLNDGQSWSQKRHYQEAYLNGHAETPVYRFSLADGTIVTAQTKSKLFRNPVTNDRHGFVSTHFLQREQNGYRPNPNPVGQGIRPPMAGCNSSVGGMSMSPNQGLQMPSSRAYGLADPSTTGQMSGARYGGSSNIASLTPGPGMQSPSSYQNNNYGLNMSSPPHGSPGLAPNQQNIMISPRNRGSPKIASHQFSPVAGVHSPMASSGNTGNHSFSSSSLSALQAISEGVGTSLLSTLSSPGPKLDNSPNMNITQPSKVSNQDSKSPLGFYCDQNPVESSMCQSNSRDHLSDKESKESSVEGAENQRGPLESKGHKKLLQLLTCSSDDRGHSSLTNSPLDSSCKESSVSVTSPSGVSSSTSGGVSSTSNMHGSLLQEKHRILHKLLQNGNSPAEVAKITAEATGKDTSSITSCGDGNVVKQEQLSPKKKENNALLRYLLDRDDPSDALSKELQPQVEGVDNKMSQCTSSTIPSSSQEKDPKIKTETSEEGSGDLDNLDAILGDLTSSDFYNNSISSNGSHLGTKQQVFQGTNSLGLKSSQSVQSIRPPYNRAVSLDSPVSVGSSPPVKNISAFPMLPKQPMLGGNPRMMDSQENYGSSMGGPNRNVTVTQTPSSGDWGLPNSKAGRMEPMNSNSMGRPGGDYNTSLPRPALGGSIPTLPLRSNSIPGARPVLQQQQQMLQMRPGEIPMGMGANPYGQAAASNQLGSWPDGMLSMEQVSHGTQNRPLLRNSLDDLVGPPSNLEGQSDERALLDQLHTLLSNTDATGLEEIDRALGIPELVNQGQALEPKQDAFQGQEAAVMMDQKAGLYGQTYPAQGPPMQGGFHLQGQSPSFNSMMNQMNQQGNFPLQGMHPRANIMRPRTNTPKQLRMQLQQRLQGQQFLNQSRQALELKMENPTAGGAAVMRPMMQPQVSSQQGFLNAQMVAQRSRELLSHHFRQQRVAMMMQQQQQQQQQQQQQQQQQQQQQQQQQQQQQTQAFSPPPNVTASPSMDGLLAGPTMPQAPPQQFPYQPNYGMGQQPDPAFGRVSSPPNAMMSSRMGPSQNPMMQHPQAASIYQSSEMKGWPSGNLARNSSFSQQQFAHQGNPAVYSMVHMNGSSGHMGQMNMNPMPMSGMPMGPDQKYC
Chain of Peroxisome proliferator-activated receptor gamma/Nuclear receptor coactivator 2 (P37231 whole entry): as the sequence (P37231 whole entry) above
Chain of Peroxisome proliferator-activated receptor gamma/Nuclear receptor coactivator 2 (Q15596 whole entry, further chain): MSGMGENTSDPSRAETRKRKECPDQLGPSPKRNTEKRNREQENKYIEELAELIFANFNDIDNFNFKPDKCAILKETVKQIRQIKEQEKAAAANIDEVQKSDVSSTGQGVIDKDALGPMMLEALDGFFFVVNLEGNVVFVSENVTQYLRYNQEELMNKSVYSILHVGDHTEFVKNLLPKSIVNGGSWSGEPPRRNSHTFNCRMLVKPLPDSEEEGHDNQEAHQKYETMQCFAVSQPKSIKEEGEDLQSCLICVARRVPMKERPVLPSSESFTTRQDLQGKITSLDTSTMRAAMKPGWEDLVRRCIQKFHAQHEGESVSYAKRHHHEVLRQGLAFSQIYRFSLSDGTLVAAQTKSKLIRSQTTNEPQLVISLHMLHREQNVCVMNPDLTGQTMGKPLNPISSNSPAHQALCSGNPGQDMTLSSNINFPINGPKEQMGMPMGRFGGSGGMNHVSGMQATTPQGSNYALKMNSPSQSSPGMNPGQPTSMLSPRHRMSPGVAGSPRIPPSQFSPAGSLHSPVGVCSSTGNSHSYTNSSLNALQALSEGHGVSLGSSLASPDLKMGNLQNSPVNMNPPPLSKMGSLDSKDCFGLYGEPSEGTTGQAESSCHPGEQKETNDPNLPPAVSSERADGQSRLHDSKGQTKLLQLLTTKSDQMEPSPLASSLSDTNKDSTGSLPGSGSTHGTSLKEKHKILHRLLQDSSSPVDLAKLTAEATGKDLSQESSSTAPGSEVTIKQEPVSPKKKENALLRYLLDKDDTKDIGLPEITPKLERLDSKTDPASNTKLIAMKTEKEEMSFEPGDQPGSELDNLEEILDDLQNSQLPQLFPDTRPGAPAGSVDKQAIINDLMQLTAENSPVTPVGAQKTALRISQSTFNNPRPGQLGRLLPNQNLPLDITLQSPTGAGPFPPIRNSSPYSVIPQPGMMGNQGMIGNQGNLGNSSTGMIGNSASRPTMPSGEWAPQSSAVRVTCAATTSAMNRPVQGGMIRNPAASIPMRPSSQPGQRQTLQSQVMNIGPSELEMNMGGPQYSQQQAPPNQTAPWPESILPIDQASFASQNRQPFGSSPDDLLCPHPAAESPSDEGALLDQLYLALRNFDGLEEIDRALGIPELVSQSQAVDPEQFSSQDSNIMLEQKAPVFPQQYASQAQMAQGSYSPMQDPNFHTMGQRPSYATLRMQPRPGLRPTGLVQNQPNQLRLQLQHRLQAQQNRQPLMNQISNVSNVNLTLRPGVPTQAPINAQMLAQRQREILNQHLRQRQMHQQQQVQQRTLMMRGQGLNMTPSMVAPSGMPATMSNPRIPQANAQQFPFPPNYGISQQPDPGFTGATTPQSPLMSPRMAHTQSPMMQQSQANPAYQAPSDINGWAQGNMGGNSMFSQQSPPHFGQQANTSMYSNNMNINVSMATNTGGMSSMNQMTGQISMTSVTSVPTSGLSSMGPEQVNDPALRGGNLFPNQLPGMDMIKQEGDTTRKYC
Chain of Paired box protein Pax-8 (Q06710 whole entry): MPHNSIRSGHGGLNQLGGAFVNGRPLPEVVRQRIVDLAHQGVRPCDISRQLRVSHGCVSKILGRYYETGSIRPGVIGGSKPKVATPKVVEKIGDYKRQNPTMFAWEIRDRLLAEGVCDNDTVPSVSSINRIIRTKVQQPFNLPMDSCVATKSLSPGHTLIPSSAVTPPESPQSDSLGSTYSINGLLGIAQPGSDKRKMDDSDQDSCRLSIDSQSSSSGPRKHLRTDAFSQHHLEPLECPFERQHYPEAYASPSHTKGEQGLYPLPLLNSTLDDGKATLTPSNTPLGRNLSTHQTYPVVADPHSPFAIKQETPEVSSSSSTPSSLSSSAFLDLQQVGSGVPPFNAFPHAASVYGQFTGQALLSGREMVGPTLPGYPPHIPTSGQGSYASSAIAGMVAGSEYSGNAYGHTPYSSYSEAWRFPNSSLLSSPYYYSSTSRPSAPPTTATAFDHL
Chain of NAD-dependent protein deacylase sirtuin-5, mitochondrial (Q9NXA8 whole entry, the tested form may be a part): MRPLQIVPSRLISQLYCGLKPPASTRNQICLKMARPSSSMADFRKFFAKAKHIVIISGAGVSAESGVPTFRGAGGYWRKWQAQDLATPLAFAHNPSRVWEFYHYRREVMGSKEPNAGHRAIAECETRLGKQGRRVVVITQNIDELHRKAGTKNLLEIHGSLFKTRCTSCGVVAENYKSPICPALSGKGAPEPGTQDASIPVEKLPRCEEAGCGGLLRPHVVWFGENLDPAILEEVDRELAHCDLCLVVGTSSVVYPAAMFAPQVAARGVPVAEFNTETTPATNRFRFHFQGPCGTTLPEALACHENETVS
Chain of Eukaryotic translation initiation factor 4E (P63073 whole entry): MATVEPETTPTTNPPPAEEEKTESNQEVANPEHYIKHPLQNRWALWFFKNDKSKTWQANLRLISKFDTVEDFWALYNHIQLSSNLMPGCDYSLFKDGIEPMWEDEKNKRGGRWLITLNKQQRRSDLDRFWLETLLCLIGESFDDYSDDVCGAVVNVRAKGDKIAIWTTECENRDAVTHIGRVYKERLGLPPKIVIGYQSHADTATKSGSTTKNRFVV

Compound: CC(C)C[C@H](NC(=O)c1[nH]cnc1C(=O)N1CCN(c2ccccc2)CC1)C(=O)OC(C)(C)C
- EC50 [1]: 65.1 µM (active)
- EC50 [2]: 26.5 µM (active)
- IC50 [3]: > 100 µM (active)
- EC50 [4]: 14.5 µM (active)

Compound: O=c1oc2ccccc2cc1-c1cn2ccccc2n1
- EC50 [5]: 17.1 µM (active)
- EC50 [6]: > 79.4 µM (not active)
- EC50 [7]: 3.59 µM (active)
- EC50 [8]: 11 µM (active)
- EC50 [9]: > 79.4 µM (not active)
- AC50 [10]: > 70 µM (inactive)
- AC50 [11]: 3.64 µM (active)
- AC50 [12]: 20.3 µM (active)
- EC50 [13]: > 79.4 µM (not active)
- EC50 [14]: 2.92 µM (active)

Compound: Cc1ccc(Cn2c(N3CCNCC3)nc3c2c(=O)[nH]c(=O)n3C)cc1
- AC50 [15]: 25.2 µM (active)

Compound: COc1cc(C(c2c(C)[nH][nH]c2=O)c2c(C)[nH][nH]c2=O)ccc1OCc1ccc([N+](=O)[O-])cc1
- IC50 [16]: > 69.5 µM (inactive)
- EC50 [17]: 0.178 µM (active)
- AC50 [18]: 0.338 µM (active)

Compound: OC(C#CCN1CCCC1)(c1ccccc1)c1cccc(F)c1 (stereo unspecified)
- EC50 [6]: > 79.4 µM (not active)
- EC50 [9]: > 79.4 µM (not active)
- EC50 [13]: > 79.4 µM (not active)

Compound: O=C(NCCc1ccncc1)c1ccccc1F
- IC50 [19]: > 64 µM (inactive)

Compound: CC(C)N1CCN(Cc2ccc(Oc3ncccn3)cc2)CC1CCO (stereo unspecified)
- EC50 [6]: > 79.4 µM (not active)
- EC50 [9]: > 79.4 µM (not active)
- EC50 [13]: > 79.4 µM (not active)

Compound: O=C(CCS(=O)(=O)c1ccccc1)Nc1nc2ccc(F)cc2s1
- AC50 [20]: 36.9 µM (active)
- AC50 [21]: 3.55 µM (active)
- AC50 [22]: > 100 µM (inactive)
- AC50 [23]: 28 µM (active)
- AC50 [24]: > 100 µM (inactive)
- AC50 [25]: 20.3 µM (active)
